Laboratory results taken from US20060183794A1, “Drug composition containing nf-kb inhibitor” (priority 2002, published 2006).

Key:
[1] = system: human pancreatic cancer cell line PK-2; assay: Human pancreatic cancer PK-2 subcutaneous tumor in SCID mice; assay type: in vivo; conditions: PK-2 s.c., 12 mg/kg i.p.
Method: The in vivo suppressive effect of DHMEQ on proliferation of tumor cells in human pancreatic cancer. The human pancreatic cancer cell line PK-2 (2×10^6 cells) was inoculated subcutaneously in the right back of SCID mice (n=7) and then 12 mg/kg DHMEQ was injected intraperitoneally (i.p.) at a dose of 200 μl every other day for five days. Subsequently, the major axis and minor axis of the tumors were measured every seven days. The tumor volume was calculated as follows: (major axis)×(minor axis)^2×0.5.

[2] = system: human breast cancer cell line MCF-7 transplanted into SCID mice; assay: MCF-7 subcutaneous tumor model in SCID mice; assay type: in vivo; conditions: DHMEQ 4 mg/kg i.p. three times per week
Method: Subcutaneous tumor model SCID mice (CLEA Japan) were given DHMEQ (4 mg/kg) three days a week and the volume of the tumors were periodically measured for examination of the suppressive effect of DHMEQ on tumor growth. The body weights of the mice were also measured simultaneously.
MCF-7 (1×10^6 cells) suspended in 100 μl of PBS was inoculated subcutaneously into the back of six-week-old SCID mice. DHMEQ was suspended in 0.5% methylcellulose (Nacalai Tesque) solution at 4 mg/kg in 200 μl. The drug-containing solution or 0.5% methylcellulose solution (200 μl) was intraperitoneally administered three times per week (n=8/group), starting on the next day after inoculation. The major axis and minor axis of the tumors were measured with calipers every seven days. The tumor volume was calculated as follows: (major axis)×(minor axis)^2/2. The body weights were also measured simultaneously.

KMH2 = assay: MTT assay, KMH2 cells, DHMEQ combined with antitumor agents; assay type: cell-based; conditions: DHMEQ 10 μg/ml, 48 hours, with camptothecin, daunomycin or etoposide
Method: DHM2EQ was added to the ATL cell lines (MT-1 and TL-Om1) and a control cell line (K562) at a final concentration of 10 μg/ml and the cells were incubated for 12, 24, 48, and 72 hours. The proliferation-inhibitory effect was examined by the MTT assay. Cells to which the solvent DMSO had been added in equal volume were used as controls. Relative MTT values were obtained in the same manner as the aforementioned (1).
The effects of antitumor agents and the enhancing effect thereon were examined by the MTT assay method as described in Example 5(2).
In this example, the cells used were KMH2. The horizontal axes in FIG. 31 indicate the concentrations of each antitumor agent the DHMEQ concentration. The concentrations of each anticancer agent were set at three levels. The examination was performed on DHMEQ alone, the antitumor agent alone, or both in combination, at each level. DHMEQ was used at a concentration of 10 μg/ml and the treatment time was 48 hours. The vertical axis indicates the relative values of the MTT values of treated cells versus untreated cells, i.e., (treated/untreated)×100%.

[3] = system: human pancreatic cancer cell line Colo357; assay: Annexin-V/PI flow cytometry apoptosis assay, Colo357 with irradiation; assay type: cell-based
Method: Next, the apoptosis-enhancing effect of DHMEQ on irradiated tumor cells was investigated. The human pancreatic cancer cell line Colo357 given 10 μg/ml DHMEQ for six hours, the human pancreatic cancer cell line Colo357 irradiated with 20 Gy radiation and then incubated for 6 hours, and the human pancreatic cancer cell line Colo357 given 10 μg/ml DHMEQ for six hours immediately after irradiation with 20 Gy radiation were subjected to Annexin-V/propidium iodide (PI) double staining. The apoptotic cells (lower right) were measured by flow cytometry and the ratio was calculated. […] On the other hand, in the cells to which DHMEQ was administered after irradiation with 20 Gy radiation, the apoptosis-inducing ability is enhanced three-fold, as compared with the cells only irradiated with 20 Gy radiation

[4] = system: MM cells (MM1, MM2, and MM3) of multiple myeloma patients; assay: MTT assay, MM cells from patients' bone marrow; assay type: cell-based, human; conditions: 10 μg/ml, 48 hours
Method: Next, to investigate the inhibitory effect of DHMEQ on proliferation of cells of multiple myeloma (MM) patients, MM cells (MM1, MM2, and MM3) were isolated from patients' bone marrow, incubated for 48 hours at the DHMEQ concentration of 10 μg/ml, and the proliferation-inhibitory effect was examined by the MTT assay. Peripheral blood mononuclear cells (PBMC) isolated from normal peripheral blood were used as control cells. In the figure, the vertical axis indicates the relative values of the MTT values of treated cells versus untreated cells, i.e., (DHMEQ-treated/untreated)×100%.

[5] = system: multiple myeloma cell line 196TIB; assay: MTT assay, proliferation of multiple myeloma cell line 196TIB; assay type: cell-based
Method: Cells from the ATL cell lines (MT-1 and TL-Om1) and a control cell line (K562) were plated in 96-well plates at 1×10^5 cells/well and DHM2EQ was added at the desired final concentrations (2, 5, and 10 μg/ml). Cells to which the solvent DMSO had been added in equal volume (0 μg/ml) were used as […] incubation for 72 hours, cell viability was judged by the MTT assay. Relative MTT values were obtained as the ratio of the MMT values of DHM2EQ-treated cells to those of DHM2EQ-untreated cells, i.e., (MTT values of DHM2EQ-treated cells/MTT values of DHM2EQ-untreated cells)×100(%).
Concentration dependence analysis of the inhibitory effect of DHM2EQ on proliferation of multiple myeloma cells was performed in the same manner as in Example 2. As multiple myeloma cells, the multiple myeloma cell line 196TIB was used.

Question: Which “proliferation of tumor cells (tumor volume)” value [1] does the source give for `O=C(NC1=CC(=O)C2OC2C1O)c1ccccc1O` (centres unmarked) [DHMEQ, 5,6-epoxy-4-hydroxy-3-salicyloylamino-2-cyclohexenone] here?
Answer: The value was “significantly suppresses”.

Question: What about the “mortality or weight loss of the mice” value [2] of the same molecule?
Answer: Its value is “No mortality or weight loss”.

Question: And the “tumor growth (tumor volume)” value ([2]; MCF-7 s.c.)?
Answer: The value was “significant suppressive effect”.

Question: And the “effect on the action of antitumor agents (MTT)” value (KMH2)?
Answer: The value was “enhances the effect of any antitumor agent used”.

Question: And the “apoptosis-inducing ability versus irradiation only” value ([3]; 10 μg/ml six hours after 20 Gy radiation)?
Answer: Its value is “three-fold”.

Question: What about the “apoptosis induction by DHMEQ alone” value ([3]; 10 μg/ml, six hours) of the same molecule?
Answer: The value was “apoptosis was not induced”.

Question: What about the “proliferation of MM cells from patients (MTT)” value [4] of the same molecule?
Answer: Its value is “proliferation was suppressed”.

Question: And the “cell proliferation, concentration dependence” value [5]?
Answer: Its value is “inhibited in proportion to the DHM2EQ concentrations added”.
